Data: patent publication US8143374B2, “Polypeptide derivatives of parathyroid hormone (PTH)” (The General Hospital Corporation, priority 2006, dated 2012)
Where a SMILES comes first, the peptide text is derived from it. Where no end group is shown, it is not given here. [ ]: non-standard residue; d: D form. Cha = N[C@@H](CC1CCCCC1)C(=O)O

Assays:
[1] = Circular dichroism spectroscopy, helical residues per peptide chain; format: physicochemical; conditions: [Ala1,Arg19]hPTH(1-31)NH2 analogs; calculated from [θ]222
Procedure: Circular Dichroism—CD spectra were obtained on a JASCO J-600 spectropolarimeter at 20° C. Four spectra were averaged and the data smoothed by the JASCO software. The instrument was calibrated with ammonium (+)-10-camphorsulfonate. Peptide concentrations were verified from the absorption at 280 nm, using an extinction coefficient of 5700 M^−1 for the single tryptophan. Data are expressed as the number of helical residues per peptide chain, as calculated from −[θ]222×30/28,000, where [θ]222 is the mean residue elipticity ([θ]) at 222 nm, as was described previously (Barbier, J. R., et al. (2005) J Biol Chem. 280:23771-23777).

PTHR-delNt = biological target: T1, PTHR-delNt (Homo sapiens, UniProt Q03431, DEL24-181); assay: Competition binding in COS-7 cell membranes with 125I-[Aib1,3,M]PTH(1-15)NH2 tracer; conditions: for IC50: [Ala1,Arg19]hPTH(1-31)NH2 analogs, COS-7 membranes cotransfected with negative-dominant Gαs, read-out: PTHR-delNT (COS-7) IC50; for effect on binding to PTHR-delNt (in words) / reduction (alteration) of binding affinity for PTHR-delNt relative to parent peptide: COS-7 membranes; for reduction (alteration) of binding affinity for PTHR-delNt relative to parent peptide: versus the respective parent peptide
T1 construct: expressed in transfected cells; host or cells: COS-7 cells, transient co-transfection; membranes prepared
T1 sequence (Q03431 with tags, fused parts or gaps DEL24-181): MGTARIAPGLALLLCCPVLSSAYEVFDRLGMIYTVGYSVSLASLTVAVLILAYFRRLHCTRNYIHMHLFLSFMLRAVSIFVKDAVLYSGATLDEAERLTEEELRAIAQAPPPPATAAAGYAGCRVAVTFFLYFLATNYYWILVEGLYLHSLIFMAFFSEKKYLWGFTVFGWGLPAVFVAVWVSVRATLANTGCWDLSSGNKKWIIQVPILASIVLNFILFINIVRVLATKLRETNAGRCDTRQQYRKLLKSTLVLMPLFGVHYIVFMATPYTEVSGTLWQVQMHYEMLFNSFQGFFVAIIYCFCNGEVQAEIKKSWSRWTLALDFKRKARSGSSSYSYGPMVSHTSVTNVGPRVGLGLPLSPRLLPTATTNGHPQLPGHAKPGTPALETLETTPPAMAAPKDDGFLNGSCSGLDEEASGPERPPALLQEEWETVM
Procedure: PTHR-delNt is a derivative of the human PTHR that is deleted for most (Ala^24-Arg^181) of the amino-terminal extracellular domain (Shimizu, M., et al. (2001) Endocrinology 142:3068-3074). This PTHR construct was expressed in COS-7 cells via transient DNA transfection. For cAMP assays, the cells were transfected in 24-well plates using 0.2 μg of plasmid DNA and 0.6 μl of Fugene-6 reagent (Roche Diagnostics, Indianapolis Ind.) per well, and assays were performed on the intact cells three to four days after transfection. For binding assays, cell membranes were prepared from transfected COS-7 cells. To increase the maximal binding of ^125I-[Aib^1,3,M]PTH(1-15)NH2 to PTHR-delNt in these membranes, the cells were cotransfected with a negative dominant mutant Gαs protein (Gαs^ND). This mutant Gαs subunit is thought to couple to cognate receptors, and thus stabilize high affinity receptor conformations, more efficiently than does wild-type Gαs, without increasing basal cAMP levels (Berlot, C. H. (2002) J Biol Chem 277:21080-5). A precursor of this mutant Gαs, Gαs(α3β5), was recently used to increase binding of ^125I-[Aib^1,3,M]PTH(1-15)NH2 to PTHR-delNt in COS-7 cell membranes (Dean, T., (2006) Mol Endocrinol 20:931-942). Gαs^ND, which contains the same five amino acid replacement of corresponding Gαi residues in the α3β5 loop as Gαs(α3β5), plus the point mutations of Gly^226 to Ala, which increases affinity for Gβ/γ, and Ala^366 to Ser, which decreases affinity for GDP, yields approximately two-fold higher levels of specific binding of ^125I-[Aib^1,3,M]PTH(1-15)NH2 than does Gαs(α3β5) (data not shown). For the current membrane preparations, COS-7 cells were co-transfected in six-well plates using 1 μg of each plasmid DNA encoding PTHR-delNt and Gαs^ND, and 6 μl of Fugene-6 reagent (Roche Diagnostics, Indianapolis Ind.) per well. Cells were harvested three days after transfection, and membranes were prepared as described (Dean, T., et al. (2006) Mol Endocrinol 20:931-942).
Receptor binding—Binding to the wild-type human PTHR in intact HKRK-B7 cells and ROS 17/2.8 cells was assessed using ^125I-PTH(1-34) as a tracer radioligand, as described (Shimizu, M., (2001) Endocrinology 142:3068-3074). In brief, the cells in 24-well plates (about 500,000 cells per well) were incubated in binding buffer containing radioligand (about 100,000 cpm per well) with or without unlabeled peptide ligand (3×10^−9 to 1×10^−5 M) for four hours at 15° C. The binding mixture was then removed by aspiration, the cells were rinsed three times with binding buffer, lysed in 1 M NaOH, and the entire lysate was counted for gamma-irradiation in a gamma counter. Binding to PTHR-delNt in COS-7 cell membranes was assessed in 96-well, vacuum filtration plates (Multiscreen-Durapore HV, […] membranes, Millipore Corp., Millford, Mass.) using ^125I-[Aib^1,3,M]PTH(1-15)NH2 as a tracer radioligand, as described (Dean, T., (2006) Mol Endocrinol 20:931-942). In brief, cell membranes (20 μg/well) were incubated in membrane binding buffer containing radioligand (30,000 cpm/well) with or without unlabeled peptide ligand (3×10^−9 to 1×10^−5 M) for 90 minutes at 21° C. The plates were then subject to rapid vacuum filtration, the filters were washed once with buffer, detached from the plate and counted for gamma-irradiation in a gamma counter. Non-specific binding was defined as the binding observed in the presence of 1×10^−6 M PTH(1-31)NH2 for HKRK-B7 and ROS 17/2.8 cells, and 1×10^−6 M [Aib^1,3,M]PTH(1-15)NH2 for PTHR-delNt. Specifically bound radioactivity was calculated as a percentage of the radioactivity specifically bound in the absence of competing ligand. […]

CD helical residues [1] | IC50 (PTHR-delNt) [nM] | reduction (alteration) of binding affinity for PTHR-delNt relative to parent peptide (PTHR-delNt) | Compound | effect on binding to PTHR-delNt (in words) (PTHR-delNt)
8 | 408 ± 32 |  | CC[C@H](C)[C@H](NC(=O)[C@H](CCC(=O)O)NC(=O)[C@H](CO)NC(=O)[C@@H](NC(=O)[C@H](C)N)C(C)C)C(=O)N[C@@H](CCC(N)=O)C(=O)N[C@@H](CC(C)C)C(=O)N[C@@H](CCSC)C(=O)N[C@@H](Cc1c[nH]cn1)C(=O)N[C@@H](CC(N)=O)C(=O)N[C@@H](CC(C)C)C(=O)NCC(=O)N[C@@H](CCCCN)C(=O)N[C@@H](Cc1c[nH]cn1)C(=O)N[C@@H](CC(C)C)C(=O)N[C@@H](CC(N)=O)C(=O)N[C@@H](CO)C(=O)N[C@@H](CC1CCCCC1)C(=O)N[C@@H](CCCNC(=N)N)C(=O)N[C@@H](CCCNC(=N)N)C(=O)N[C@H](C(=O)N[C@@H](CCC(=O)O)C(=O)N[C@@H](Cc1c[nH]c2ccccc12)C(=O)N[C@@H](CC(C)C)C(=O)N[C@@H](CCCNC(=N)N)C(=O)N[C@@H](CCCCN)C(=O)N[C@@H](CCCCN)C(=O)N[C@@H](CC(C)C)C(=O)N[C@@H](CCC(N)=O)C(=O)N[C@@H](CC(=O)O)C(=O)N[C@H](C(N)=O)C(C)C)C(C)C [Met^18→Cha] (H-AVSEIQLMHNLGKHLNS[Cha]RRVEWLRKKLQDV-NH2; N-terminus assumed) | 
9 | 179 ± 41 |  | CC[C@H](C)[C@H](NC(=O)[C@H](CCC(=O)O)NC(=O)[C@H](CO)NC(=O)[C@@H](NC(=O)[C@H](C)N)C(C)C)C(=O)N[C@@H](CCC(N)=O)C(=O)N[C@@H](CC(C)C)C(=O)N[C@@H](CCSC)C(=O)N[C@@H](Cc1c[nH]cn1)C(=O)N[C@@H](CC(N)=O)C(=O)N[C@@H](CC(C)C)C(=O)NCC(=O)N[C@@H](CCCCN)C(=O)N[C@@H](Cc1c[nH]cn1)C(=O)N[C@@H](CC(C)C)C(=O)N[C@@H](CC(N)=O)C(=O)N[C@@H](CC1CCCCC1)C(=O)N[C@@H](CCSC)C(=O)N[C@@H](CCCNC(=N)N)C(=O)N[C@@H](CCCNC(=N)N)C(=O)N[C@H](C(=O)N[C@@H](CCC(=O)O)C(=O)N[C@@H](Cc1c[nH]c2ccccc12)C(=O)N[C@@H](CC(C)C)C(=O)N[C@@H](CCCNC(=N)N)C(=O)N[C@@H](CCCCN)C(=O)N[C@@H](CCCCN)C(=O)N[C@@H](CC(C)C)C(=O)N[C@@H](CCC(N)=O)C(=O)N[C@@H](CC(=O)O)C(=O)N[C@H](C(N)=O)C(C)C)C(C)C [Ser^17→Cha] (H-AVSEIQLMHNLGKHLN[Cha]MRRVEWLRKKLQDV-NH2; N-terminus assumed) | 
8 | 867 ± 402 | three-fold or less | CC[C@H](C)[C@H](NC(=O)[C@H](CCC(=O)O)NC(=O)[C@H](CO)NC(=O)[C@@H](NC(=O)[C@H](C)N)C(C)C)C(=O)N[C@@H](CCC(N)=O)C(=O)N[C@@H](CC(C)C)C(=O)N[C@@H](CCSC)C(=O)N[C@@H](Cc1c[nH]cn1)C(=O)N[C@@H](CC(N)=O)C(=O)N[C@@H](CC(C)C)C(=O)NCC(=O)N[C@@H](CCCCN)C(=O)N[C@@H](Cc1c[nH]cn1)C(=O)N[C@@H](CC(C)C)C(=O)N[C@@H](CC(N)=O)C(=O)N[C@@H](CO)C(=O)N[C@@H](CCSC)C(=O)N[C@@H](CCCNC(=N)N)C(=O)N[C@@H](CCCNC(=N)N)C(=O)N[C@H](C(=O)N[C@@H](CCC(=O)O)C(=O)N[C@@H](CC1CCCCC1)C(=O)N[C@@H](CC(C)C)C(=O)N[C@@H](CCCNC(=N)N)C(=O)N[C@@H](CCCCN)C(=O)N[C@@H](CCCCN)C(=O)N[C@@H](CC(C)C)C(=O)N[C@@H](CCC(N)=O)C(=O)N[C@@H](CC(=O)O)C(=O)N[C@H](C(N)=O)C(C)C)C(C)C [Trp^23→Cha] (H-AVSEIQLMHNLGKHLNSMRRVE[Cha]LRKKLQDV-NH2; N-terminus assumed) | little or no effect on binding to PTHR-delNt
9 | 564 ± 172 |  | CC[C@H](C)[C@H](NC(=O)[C@H](CCC(=O)O)NC(=O)[C@H](CO)NC(=O)[C@@H](NC(=O)[C@H](C)N)C(C)C)C(=O)N[C@@H](CCC(N)=O)C(=O)N[C@@H](CC(C)C)C(=O)N[C@@H](CCSC)C(=O)N[C@@H](Cc1c[nH]cn1)C(=O)N[C@@H](CC(N)=O)C(=O)N[C@@H](CC(C)C)C(=O)NCC(=O)N[C@@H](CCCCN)C(=O)N[C@@H](Cc1c[nH]cn1)C(=O)N[C@@H](CC(C)C)C(=O)N[C@@H](CC(N)=O)C(=O)N[C@@H](CO)C(=O)N[C@@H](CCSC)C(=O)N[C@@H](CCCNC(=N)N)C(=O)N[C@@H](CCCNC(=N)N)C(=O)N[C@@H](CC1CCCCC1)C(=O)N[C@@H](CCC(=O)O)C(=O)N[C@@H](Cc1c[nH]c2ccccc12)C(=O)N[C@@H](CC(C)C)C(=O)N[C@@H](CCCNC(=N)N)C(=O)N[C@@H](CCCCN)C(=O)N[C@@H](CCCCN)C(=O)N[C@@H](CC(C)C)C(=O)N[C@@H](CCC(N)=O)C(=O)N[C@@H](CC(=O)O)C(=O)N[C@H](C(N)=O)C(C)C [Val^21→Cha] (H-AVSEIQLMHNLGKHLNSMRR[Cha]EWLRKKLQDV-NH2; N-terminus assumed) | 
9 | 466 ± 298 |  | CC[C@H](C)[C@H](NC(=O)[C@H](CCC(=O)O)NC(=O)[C@H](CO)NC(=O)[C@@H](NC(=O)[C@H](C)N)C(C)C)C(=O)N[C@@H](CCC(N)=O)C(=O)N[C@@H](CC(C)C)C(=O)N[C@@H](CCSC)C(=O)N[C@@H](Cc1c[nH]cn1)C(=O)N[C@@H](CC(N)=O)C(=O)N[C@@H](CC(C)C)C(=O)NCC(=O)N[C@@H](CCCCN)C(=O)N[C@@H](Cc1c[nH]cn1)C(=O)N[C@@H](CC(C)C)C(=O)N[C@@H](CC(N)=O)C(=O)N[C@@H](CO)C(=O)N[C@@H](CCSC)C(=O)N[C@@H](CCCNC(=N)N)C(=O)N[C@@H](CCCNC(=N)N)C(=O)N[C@H](C(=O)N[C@@H](CCC(=O)O)C(=O)N[C@@H](Cc1c[nH]c2ccccc12)C(=O)N[C@@H](CC(C)C)C(=O)N[C@@H](CCCNC(=N)N)C(=O)N[C@@H](CCCCN)C(=O)N[C@@H](CCCCN)C(=O)N[C@@H](CC(C)C)C(=O)N[C@@H](CCC(N)=O)C(=O)N[C@@H](CC(=O)O)C(=O)N[C@@H](CC1CCCCC1)C(N)=O)C(C)C [Val^31→Cha] (H-AVSEIQLMHNLGKHLNSMRRVEWLRKKLQD[Cha]-NH2; N-terminus assumed) | 
7 | 434 ± 84 | less than three-fold | AVSEIQLMHNLGKHLNSMRRVEELRKKLQDV-NH2 [Trp^23→Glu] | only mildly impaired binding to PTHR-delNt
